pIC50: −log10 of the molar value. Like-named read-outs stand apart in the source and are kept apart here. *1 amine or outer side, *2 acyl side, *3 side chain or, on linkers, in order; H or OH if unused. Where a SMILES comes first, the peptide text is derived from it. Bridges are numbered along the chain shown (N, C = ends). [ ]: non-standard residue; d: D form. The star is where a group is joined. hPhe(3-Cl-4-CF3) = N[C@@H](CCc1ccc(C(F)(F)F)c(Cl)c1)C(=O)O; NPrPhe(4-CF3) = CCCN[C@@H](Cc1ccc(C(F)(F)F)cc1)C(=O)O; X40 = Cc1ccc(C[C@@H](C(=O)[*:2])N(CC(C)C)[*:1])cc1; NEtPhe(4-Me) = CCN[C@@H](Cc1ccc(C)cc1)C(=O)O; NEtPhe(4-F) = CCN[C@@H](Cc1ccc(F)cc1)C(=O)O; NMeGly(cPent) = CN[C@H](C(=O)O)C1CCCC1; NMeD = CN[C@@H](CC(=O)O)C(=O)O; NMeL = CN[C@@H](CC(C)C)C(=O)O; X20 = O=C(CN(CCF)[*:1])[*:2]; N(Me)CH2CH2OMe = COCCN(C)*; Morpholide = C1CN(*)CCO1; NMeA = CN[C@@H](C)C(=O)O; Ac5c = NC1(C(=O)O)CCCC1; Aze = O=C(O)[C@@H]1CCN1; Sar = CNCC(=O)O
Experiments:
[1] = system: human lung cancer strain NCI-H441; type: cell-based
Summary of the method: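 Proliferation was scored by […] measured after the reagent was added to cultures kept at 37°C in 5% carbon dioxide.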

[2] = molecular target: GDP-bound NRAS wild-type protein (Homo sapiens, UniProt P01111); assay: Binding to NRAS by surface plasmon resonance (SPR), KD and KD ratio to KRAS
Summary of the method: (§1)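 Compound binding is evaluated by SPR single-cycle kinetics, with concentrations added intermittently from low to high for 75 s each. Target surfaces carry GDP-loaded biotinylated Avi-RAS at about 100–300 RU, regenerated after each cycle; temperature 30°C. A 1:1 binding model gives KD.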

HRAS wild-type protein = HRAS wild-type protein (Homo sapiens, UniProt P01112); assay: Binding to HRAS by surface plasmon resonance (SPR), KD and KD ratio to KRAS
Summary of the method: as §1

[3] = ratio of KD for GDP-bound NRAS wild-type protein to KD for KRAS
[4] = ratio of KD for HRAS wild-type protein to KD for KRAS
[5] = ratio of the KD value with respect to GDP-bound NRAS wild-type protein to the KD value with respect to KRAS
[6] = ratio of the KD value with respect to HRAS wild-type protein to the KD value with respect to KRAS
[7] = ratio of KD value for GDP-bound NRAS wild-type protein to KD value for KRAS (SPR)
[8] = ratio of KD value for HRAS wild-type protein to KD value for KRAS (SPR)

GDP-bound NRAS wild-type protein, sequence (P01111 whole entry): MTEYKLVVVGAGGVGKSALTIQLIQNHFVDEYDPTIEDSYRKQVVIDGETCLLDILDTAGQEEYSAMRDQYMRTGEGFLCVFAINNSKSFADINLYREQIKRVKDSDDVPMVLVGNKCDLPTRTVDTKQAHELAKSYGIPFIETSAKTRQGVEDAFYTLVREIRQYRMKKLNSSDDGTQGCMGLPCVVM
HRAS wild-type protein, sequence (P01112 whole entry): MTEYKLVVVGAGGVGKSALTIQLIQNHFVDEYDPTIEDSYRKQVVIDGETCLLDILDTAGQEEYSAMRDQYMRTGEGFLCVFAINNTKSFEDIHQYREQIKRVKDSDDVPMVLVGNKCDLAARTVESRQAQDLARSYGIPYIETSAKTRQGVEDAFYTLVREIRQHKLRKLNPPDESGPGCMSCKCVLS

| SMILES | pIC50 [1] | NRAS /KRAS [2, 3] | HRAS /KRAS (HRAS wild-type protein; [4]) | NRAS /KRAS [2, 5] | HRAS /KRAS (HRAS wild-type protein; [6]) | pIC50 ([1]; NCI-H441 cells, 4 days, CellTiter-Glo, read-out: NCl-H441 IC50) | NRAS /KRAS [2, 7] | HRAS /KRAS (HRAS wild-type protein; [8]) |
| --- | --- | --- | --- | --- | --- | --- | --- | --- |
| CC[C@H](C)[C@@H]1NC(=O)[C@H](CC(C)C)N(C)C(=O)C[C@@H](C(=O)N2CCOCC2)N(C)C(=O)[C@H](C2CCCC2)N(C)C(=O)C2(CCCC2)NC(=O)[C@@H]2CCCN2C(=O)[C@H](CCc2ccc(C(F)(F)F)c(Cl)c2)NC(=O)CN(C)C(=O)[C@H](Cc2ccc(F)cc2)N(CC)C(=O)CN(C)C(=O)CN(C)C1=O [PP0213] ([NMeL]I[Sar][Sar][NEtPhe(4-F)][Sar][hPhe(3-Cl-4-CF3)]P[Ac5c][NMeGly(cPent)][NMeD]-Morpholide; lactam N-11) | 7.99 | C (A compound having a KD ratio of 0.1 or more and less than 3 is denoted as C) | C (A compound having a KD ratio of 0.1 or more and less than 3 is denoted as C) | – | – | – | – | – |
| CCCN1C(=O)CN(C)C(=O)CN(C)C(=O)[C@H]([C@@H](C)CC)NC(=O)[C@H](CC(C)C)N(C)C(=O)C[C@@H](C(=O)N(C)CCOC)N(C)C(=O)[C@H](C2CCCC2)N(C)C(=O)C2(CCCC2)NC(=O)[C@@H]2CCCN2C(=O)[C@H](CCc2ccc(C(F)(F)F)c(Cl)c2)NC(=O)CN(C)C(=O)[C@@H]1Cc1ccc(C(F)(F)F)cc1 [PP0391] ([NMeL]I[Sar][Sar][NPrPhe(4-CF3)][Sar][hPhe(3-Cl-4-CF3)]P[Ac5c][NMeGly(cPent)][NMeD]-{N(Me)CH2CH2OMe}; lactam N-11) | 8.96 | – | – | B (a compound having 3 or more and less than 10 is denoted as B) | B (a compound having 3 or more and less than 10 is denoted as B) | – | – | – |
| CCCN1C(=O)CN(C)C(=O)CN(CCF)C(=O)[C@H]([C@@H](C)CC)NC(=O)[C@H](CC(C)C)N(C)C(=O)C[C@@H](C(=O)N2CCOCC2)N(C)C(=O)[C@H](C2CCCC2)N(C)C(=O)C2(CCCC2)NC(=O)[C@@H]2CCCN2C(=O)[C@H](CCc2ccc(C(F)(F)F)c(Cl)c2)NC(=O)CN(C)C(=O)[C@@H]1Cc1ccc(C(F)(F)F)cc1 [PP0751] ([NMeL]I[X20][Sar][NPrPhe(4-CF3)][Sar][hPhe(3-Cl-4-CF3)]P[Ac5c][NMeGly(cPent)][NMeD]-Morpholide; lactam N-11) | 7.59 | – | – | B (a compound having 3 or more and less than 10 is denoted as B) | C (A compound having a KD ratio of 0.1 or more and less than 3 is denoted as C) | – | – | – |
| CCO[C@@H]1C[C@H]2C(=O)NC3(CCC3)C(=O)N(C)[C@@H](C3CCCC3)C(=O)N(CC)[C@H](C(=O)N3CCOCC3)CC(=O)N(C)[C@@H](COC)C(=O)N[C@@H]([C@@H](C)CC)C(=O)N(C)CC(=O)N(C)[C@H]3CCCCCN(C3=O)[C@@H](Cc3ccc(C(F)(F)F)cc3)C(=O)N(C)CC(=O)N[C@@H](CCc3cc(F)c(C(F)(F)F)c(F)c3)C(=O)N2C1 [PP0946] | 6.42 | A (a compound having 10 or more and less than 20 is denoted as A) | B (a compound having 3 or more and less than 10 is denoted as B) | – | – | – | – | – |
| CCC[C@H]1C(=O)N[C@@H]([C@@H](C)CC)C(=O)N(C)CC(=O)N(C)[C@H]2C/C=C\CCN(C2=O)[C@@H](Cc2ccc(C(F)(F)F)cc2)C(=O)N(C)CC(=O)N[C@@H](CCc2ccc3c(C)cn(C)c3c2)C(=O)N2C[C@H](OCC)C[C@H]2C(=O)NC2(CC(C)(C)C2)C(=O)N(C)[C@@H](C2CCCC2)C(=O)N(C)[C@H](C(=O)N(C)C)CC(=O)N1C [PP2897] | 7.98 | A (a compound having 10 or more and less than 20 is denoted as A) | B (a compound having 3 or more and less than 10 is denoted as B) | – | – | – | – | – |
| CCO[C@@H]1C[C@H]2C(=O)NC3(CC(C)(C)C3)C(=O)N(C)[C@@H](C(CC)CC)C(=O)N(C)[C@H](C(=O)N3CCCC3)CC(=O)N(C)[C@@H](CC)C(=O)N[C@@H]([C@@H](C)CC)C(=O)N(C)CC(=O)N(C)[C@H]3C/C=C\CCN(C3=O)[C@@H](Cc3ccc(C)cc3)C(=O)N(C)CC(=O)N[C@@H](CCc3cc(F)c(C(F)(F)F)c(F)c3)C(=O)N2C1 [PP2149] | 7.75 | – | – | A (a compound having 10 or more and less than 20 is denoted as A) | A (a compound having 10 or more and less than 20 is denoted as A) | – | – | – |
| CCOC[C@H]1C(=O)N[C@@H]([C@@H](C)CC)C(=O)N(C)CC(=O)N(C)[C@H]2C/C=C\CCN(C2=O)[C@@H](Cc2ccc(C)cc2F)C(=O)N(C)CC(=O)N[C@@H](CCc2ccc(C(F)(F)F)c(OC)c2)C(=O)N2C[C@@H](C)C[C@H]2C(=O)NC2(CC(C)(C)C2)C(=O)N(C)[C@@H](C2CCCC2)C(=O)N(C)[C@H](C(=O)N(C)CC)CC(=O)N1C [PP2697] | – | A (a compound having 10 or more and less than 20 is denoted as A) | A (a compound having 10 or more and less than 20 is denoted as A) | – | – | 7.37 | – | – |
| CC[C@H](C)[C@@H]1NC(=O)[C@H](CC(C)C)N(C)C(=O)C[C@@H](C(=O)N2CCOCC2)N(C)C(=O)[C@H](CC(C)C)N(C)C(=O)C2(CCCC2)NC(=O)[C@@H]2CCCN2C(=O)[C@H](CCc2ccc(C(F)(F)F)c(Cl)c2)NC(=O)CN(C)C(=O)[C@H](Cc2ccc(C)cc2)N(CC)C(=O)[C@@H]2CCN2C(=O)[C@H](C)N(C)C1=O [PP0016] ([NMeL]I[NMeA][Aze][NEtPhe(4-Me)][Sar][hPhe(3-Cl-4-CF3)]P[Ac5c][NMeL][NMeD]-Morpholide; lactam N-11) | 7.61 | C (A compound having a KD ratio of 0.1 or more and less than 3 is denoted as C) | C (A compound having a KD ratio of 0.1 or more and less than 3 is denoted as C) | – | – | – | – | – |
| CCO[C@@H]1C[C@H]2C(=O)NC3(CC(C)(C)C3)C(=O)N(C)[C@@H](C3CCCC3)C(=O)N(C)[C@H](C(=O)N(C)C)CC(=O)N(CC)[C@@H](CC(C)C)C(=O)N[C@@H]([C@@H](C)CC)C(=O)NCC(=O)N(C)[C@H]3C/C=C\CCN(C3=O)[C@@H](Cc3ccc(C(F)(F)F)cc3)C(=O)N(C)CC(=O)N[C@@H](CCc3cc(F)c(C(F)(F)F)c(F)c3)C(=O)N2C1 [PP1772] | 7.87 | – | – | – | – | – | B (a compound having 3 or more and less than 10 is denoted as B) | B (a compound having 3 or more and less than 10 is denoted as B) |
| CCO[C@@H]1C[C@H]2C(=O)NC3(CCCC3)C(=O)N(C)[C@@H](C3CCCC3)C(=O)N(C)[C@H](C(=O)N(C)C)CC(=O)N(C)[C@@H](CC(C)C)C(=O)N[C@@H]([C@@H](C)CC)C(=O)N(C)CC(=O)N(C)[C@H]3C/C=C\CCN(C3=O)[C@@H](Cc3ccc(C(F)(F)F)cc3)C(=O)N(C)CC(=O)N[C@@H](CCc3ccc(Cl)c(Cl)c3)C(=O)N2C1 [PP2837] | 7.89 | AA (a compound having 20 or more is denoted as AA) | A (a compound having 10 or more and less than 20 is denoted as A) | – | – | – | – | – |
| CC[C@H](C)[C@@H]1NC(=O)[C@H](CC2CCCC2)N(C)C(=O)C[C@@H](C(=O)N(C)C)N(C)C(=O)[C@H](C2CCCC2)N(C)C(=O)C2(CCC2)NC(=O)[C@@H]2C[C@@H](F)CN2C(=O)[C@H](CCc2cc(F)c(C(F)(F)F)c(F)c2)NC(=O)CN(C)C(=O)[C@H](Cc2ccc(C(F)(F)F)cc2)N2CC/C=C\C[C@@H](C2=O)N(C)C(=O)CN(C)C1=O [PP1502] | 8.70 | – | – | – | – | – | A (a compound having 10 or more and less than 20 is denoted as A) | A (a compound having 10 or more and less than 20 is denoted as A) |
| CC[C@H](C)[C@@H]1NC(=O)[C@H](CC(C)C)N(C)C(=O)C[C@@H](C(=O)N2CCOCC2)N(C)C(=O)[C@H](C2CCCC2)N(C)C(=O)C2(CCCC2)NC(=O)[C@@H]2CCCN2C(=O)[C@H](CCc2ccc(C(F)(F)F)c(Cl)c2)NC(=O)CN(C)C(=O)[C@H](Cc2ccc(C)cc2)N(CC(C)C)C(=O)[C@@H]2CCN2C(=O)[C@H](C)N(C)C1=O [PP0056] ([NMeL]I[NMeA][Aze][X40][Sar][hPhe(3-Cl-4-CF3)]P[Ac5c][NMeGly(cPent)][NMeD]-Morpholide; lactam N-11) | 7.30 | C (A compound having a KD ratio of 0.1 or more and less than 3 is denoted as C) | B (a compound having 3 or more and less than 10 is denoted as B) | – | – | – | – | – |
| CCC[C@H]1C(=O)N[C@@H]([C@@H](C)CC)C(=O)N2CCC[C@H]2C(=O)N(C)[C@H]2C/C=C\CCN(C2=O)[C@@H](Cc2ccc(C(F)(F)F)cc2)C(=O)N(C)CC(=O)N[C@@H](CCc2ccc(C(F)(F)F)c(OC)c2)C(=O)N2C[C@H](OCC)C[C@H]2C(=O)N(C)C2(CCC2)C(=O)N(C)[C@@H](C2CCCC2)C(=O)N(C)[C@H](C(=O)N2CCCCC2)CC(=O)N1C [PP3099] | 7.88 | A (a compound having 10 or more and less than 20 is denoted as A) | A (a compound having 10 or more and less than 20 is denoted as A) | – | – | – | – | – |
| CCC[C@H]1C(=O)N[C@@H]([C@@H](C)CC)C(=O)N(C)CC(=O)N(C)[C@H]2C/C=C\CCN(C2=O)[C@@H](Cc2ccc(C(F)(F)F)cc2)C(=O)N(C)CC(=O)N[C@@H](CCc2ccc(Cl)c(OC)c2)C(=O)N2C[C@H](OCC)C[C@H]2C(=O)NC2(CC(C)(C)C2)C(=O)N(C)[C@@H](C(CC)CC)C(=O)N(C)[C@H](C(=O)N(C)C)CC(=O)N1C [PP2789] | 7.33 | AA (a compound having 20 or more is denoted as AA) | A (a compound having 10 or more and less than 20 is denoted as A) | – | – | – | – | – |

Source: patent publication EP4603105A1, “PHARMACEUTICAL COMPOSITION CONTAINING CYCLIC COMPOUND HAVING SELECTIVE KRAS INHIBITORY EFFECT AGAINST HRAS AND NRAS” (CHUGAI SEIYAKU KABUSHIKI KAISHA, priority 2022, dated 2024)
